From the NIST ThermoML archive (doi:10.1021/je030141r)
± gives the expanded uncertainty stated by the source.

How the values were obtained:
[1] = Liquid; for mass density: 101.33 kPa
[2] = refractive index (Na D-line) (dimensionless); conditions: 101.33 kPa, Liquid, Standard Abbe refractometry

| mass density ([1]; 298.15 K) | refractive index ([2]; 298.15 K) | SMILES | other results |
| --- | --- | --- | --- |
| 679.5 ± 2 kg/m3 | 1.3851 ± 0.0012 | CCCCCCC [heptane] | vapor or sublimation pressure ([1]; 369.35 K): 94.6 ± 9.5 kPa |
| 805.8 ± 2.4 kg/m3 | 1.3974 ± 0.0012 | CCCCO [butan-1-ol] | vapor or sublimation pressure ([1]; 389.45 K): 95.8 ± 9.6 kPa |
| 815 ± 2.5 kg/m3 | 1.4084 ± 0.0008 | CCC(C)CO (centres undefined) [2-methyl-1-butanol] | vapor or sublimation pressure ([1]; 400.35 K): 95.8 ± 9.7 kPa |
| 781.2 ± 2.3 kg/m3 | 1.385 ± 0.001 | CC(C)(C)O [2-methylpropan-2-ol] | vapor or sublimation pressure ([1]; 354.15 K): 95.8 ± 9.6 kPa |
| 798 ± 2 kg/m3 | 1.3939 ± 0.0012 | CC(C)CO [2-methyl-1-propanol] | vapor or sublimation pressure ([1]; 379.65 K): 95.8 ± 19 kPa |
| 773.9 ± 2.3 kg/m3 | 1.4235 ± 0.0012 | C1CCCCC1 [cyclohexane] | vapor or sublimation pressure ([1]; 351.75 K): 94.6 ± 9.5 kPa |
| 802.4 ± 2.4 kg/m3 | 1.3953 ± 0.0012 | CCC(C)O (centres undefined) [butan-2-ol] | vapor or sublimation pressure ([1]; 371.35 K): 95.8 ± 9.6 kPa |

Second part, the compound before the results:

| SMILES | mass density ([1]; 298.15 K) | refractive index ([2]; 298.15 K) | other results |
| --- | --- | --- | --- |
| CCC(C)=O [butanone] | 799.7 ± 2.4 kg/m3 | 1.3769 ± 0.0012 | vapor or sublimation pressure ([1]; 350.75 K): 94.6 ± 19 kPa |
| ClC(Cl)=C(Cl)Cl [tetrachloroethene] | 1614.3 ± 5 kg/m3 | 1.5032 ± 0.0012 | vapor or sublimation pressure ([1]; 392.25 K): 95.8 ± 9.6 kPa |
| ClC(Cl)C(Cl)Cl [1,1,2,2-tetrachloroethane] | 1586.7 ± 4.9 kg/m3 | 1.4914 ± 0.0012 | vapor or sublimation pressure ([1]; 417.35 K): 95.8 ± 9.7 kPa; vapor or sublimation pressure ([1]; 417.45 K): 95.8 ± 9.7 kPa |
| C1CCOC1 [tetrahydrofuran] |  |  | mass density ([1]; 293.15 K): 889.2 ± 2.7 kg/m3; vapor or sublimation pressure ([1]; 337.15 K): 94.6 ± 9.5 kPa; vapor or sublimation pressure ([1]; 337.55 K): 95.8 ± 9.6 kPa; refractive index ([2]; 293.15 K): 1.4072 ± 0.0012 |
| ClC=C(Cl)Cl [trichloroethene] |  | 1.475 ± 0.001 | mass density ([1]; 303.15 K): 1451.4 ± 4.5 kg/m3; vapor or sublimation pressure ([1]; 357.95 K): 95.8 ± 9.6 kPa |
| CC(Cl)(Cl)Cl [1,1,1-trichloroethane] | 1329.9 ± 4.1 kg/m3 | 1.4359 ± 0.0012 | vapor or sublimation pressure ([1]; 345.65 K): 95.8 ± 9.6 kPa |
| ClCCCl [1,2-dichloroethane] | 1246.4 ± 3.8 kg/m3 | 1.4421 ± 0.0012 | vapor or sublimation pressure ([1]; 355.25 K): 95.8 ± 9.6 kPa |
